Measurements as given in patent US20020137929A1, “1 - (3-heterocyclylphenyl) isothiourea, -isourea, -guanidine and -amidine herbicidal agents” (Intellectual Property Department, BASF Aktiengesellschaft, priority 1998, published 2002).

System: ORYSAT (Rice, Tebonnet)
Experiment: Rice tolerance to post-transplant applications, flooded paddy conditions (Table III)
Type: in vivo, Oryza sativa, (L.) Tebonnet
Conditions: in vivo
Summary of the method: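 Two ten-day-old Tebonnet seedlings transplanted into flooded silt loam (water 1.5 to 3 cm above soil); three days later the water surface was treated with compound in aqueous/acetone 50/50 at about 0.0313 to 0.500 kg/ha. Visual 0-9 injury rating versus control after three to four weeks in greenhouse.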

Row | SMILES | ORYSAT herbicidal effect rating (rice tolerance) | herbicidal effect rating, ORYSAT (rice tolerance)
1 | CCOC(=O)CN1C(=O)C(Cc2ccccc2OCC(=O)O)S/C1=N/c1cc(-n2c(=O)cc(C(F)(F)F)n(C)c2=O)c(F)cc1Cl (stereo not drawn) [Compound 113, 5-[o-(Carboxymethoxy)benzyl]-2-{{2-chloro-5-[3,6-dihydro-3-methyl-2,6-dioxo-4-(trifluoromethyl)-1(2H)-pyrimidinyl]-4-fluorophenyl}imino}-4-oxo-3-thiazolidineacetic acid, 3-ethyl ester] | 0.0 | 
2 | COC(=O)C(C)OC(=O)CN1C(=O)CSC1=Nc1cc(-n2c(=O)cc(C(F)(F)F)n(C)c2=O)c(F)cc1Cl (stereo not drawn) [Compound 116, 2-{{2-Chloro-5-[3,6-dihydro-3-methyl-2,6-dioxo-4-(trifluoromethyl)-1(2H)-pyrimidinyl]-4-fluorophenyl}imino}-4-oxo-3-thiazolidineacetic acid, ester with methyl lactate] | 4.0 | 2.0
